Data as given in US20020082254A1, “Compounds for treating disorders where a decreased level of plasma FFA is desired” (priority 2000, published 2002).

What follows are compounds tested against T1, Hepatic lipase (HL) (Homo sapiens, UniProt P11150) (assay: Hepatic lipase (HL) inhibition assay, 3H-triolein substrate). Conditions: read-out: HL inhibition (% inh. at 50 μM).
T1 sequence (P11150 23-499): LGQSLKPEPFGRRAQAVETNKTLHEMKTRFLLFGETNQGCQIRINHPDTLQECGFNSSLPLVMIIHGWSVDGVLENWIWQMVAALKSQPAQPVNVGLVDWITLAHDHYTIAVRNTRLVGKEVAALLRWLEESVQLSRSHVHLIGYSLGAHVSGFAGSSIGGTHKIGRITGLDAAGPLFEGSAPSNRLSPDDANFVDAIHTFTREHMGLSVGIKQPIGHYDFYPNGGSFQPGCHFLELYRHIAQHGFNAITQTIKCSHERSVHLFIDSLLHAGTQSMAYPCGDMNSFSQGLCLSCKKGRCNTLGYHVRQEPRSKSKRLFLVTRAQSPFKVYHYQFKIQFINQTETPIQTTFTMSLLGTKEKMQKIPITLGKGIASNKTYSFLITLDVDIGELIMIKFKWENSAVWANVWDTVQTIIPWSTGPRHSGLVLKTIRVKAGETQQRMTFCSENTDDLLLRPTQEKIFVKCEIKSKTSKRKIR
Type: biochemical
Source text: Hepatic Lipase (HL) [classified as a triacylglycerol lipase, EC 3.1.1.3, in accordance with the Recommendations of the Nomenclature Committee of the International Union of Biochemistry and Molecular Biology (available on the World Wide Web at the following address: http://www.chem.qmw.ac.uk/iubmb/enzyme/)]
Materials. The hepatic lipase employed was obtained from Dr. Howard Wong of the University of California at Los Angeles (UCLA), USA, or produced and purified using the methods and a cell line provided by Dr. Wong's laboratory. ^3H-triolein (TO) from Amersham, Buckinghamshire, U.K., cat No. TRA191; 5-20 Ci/mmol dissolved in toluene and triolein (Sigma, Cat. No. T-1740). All other reagents are of commercial grade and obtained from various commercial sources.
50 μl TO in a 20 ml scintillation vial and evaporate with N2 for 5 minutes.
Add 1 ml 10% gum arabic and 1.25 ml Tris-Cl pH 8.5 and 2 ml MilliQ water.
Sonicate, on ice, 16 times for 30 seconds with a 30-second interval between cycles.
Add 2.5 ml of 5 M NaCl+2.5 ml BSA (10% in Milli Q, pH 8)+3.25 ml Milli Q
Total volume: 12.5 ml (for 80 reactions )
If an inhibitor is going to be used, it should be incubated with the 50 μl HL (of a 125 mU/ml solution) for 70 minutes at 25° C. A 5 μl aliquot from the incubated 50 μl is added to 150 μl assay mix+45 μl Milli Q™ water and mixed.
Incubate for exactly 30 minutes at 25° C.
Stop the reaction with Methanol:chloroform:heptane 10:9:7: 3.25 ml/vial, mix; then add 1.05 ml buffer (100 mM boric acid, 100 mM potassium carbonate pH 10.5), mix for 10 seconds per vial.
Centrifuge for 20 min/2000 rpm
Take 1 ml of the upper phase+10 ml scintillation fluid and mix by shaking by hand.
Scintillation count for 5 minutes per vial.

With `O=C(NN1CCc2ccccc2C1)Oc1ccc(Cl)cc1` [Example 6, (3,4-Dihydro-1H-isoquinolin-2-yl)-carbamic acid 4-chloro-phenyl Ester] as the compound, how does the inhibition at 50 µM read?
Its inhibition at 50 µM is 6%.

With `CC(C)(C)OC(=O)Nc1ccc(OC(=O)NN2CCc3ccccc3C2)cc1` [Example 17, (3,4-Dihydro-1H-isoquinolin-2-yl)-carbamic Acid 4-tert-butoxycarbonylamino-phenyl Ester] as the compound, how does the inhibition at 50 µM read?
The inhibition at 50 µM was 3%.

How did the inhibition at 50 µM turn out when `CC1Cc2ccccc2CN1NC(=O)Oc1ccc(Cl)cc1` (stereo not drawn) [Example 23, (3-Methyl-3,4-dihydro-1H-isoquinolin-2-yl)-carbamic Acid 4-chloro-phenyl Ester] was run?
The inhibition at 50 µM was 4%.
